{"source": "patent US8124780B2", "about": "“Benzimidazole compound” (priority 2005, dated 2012)", "system": "gastric acid secretion", "assay": "animal or person", "type": "in vivo, dog", "conditions": "for inhibition in vivo at 0.1 mg/kg / inhibition in vivo at 0.2 mg/kg / inhibition in vivo at 1.6 mg/kg / inhibition in vivo at 0.4 mg/kg / inhibition in vivo at 0.8 mg/kg: Canis lupus familiaris; for inhibition in vivo at 0.1 mg/kg: dose 0.1 mg/kg i.d.; for inhibition in vivo at 0.2 mg/kg: dose 0.2 mg/kg i.d.", "key": {"[1]": {"conditions": "i.d., 24 h, second day, 24 hours after administration, histamine i.v., read-out: Persistency of inhibitory effect against gastric acid secretion (%)"}, "[2]": {"conditions": "i.d., first day, 1 h 40 min to 2 h after administration, histamine i.v., read-out: Inhibitory effect against gastric acid secretion (%)"}, "[3]": {"conditions": "dose 0.4 mg/kg i.d., first day, 1 h 40 min to 2 h after administration, histamine i.v., 0.4 mg/kg"}, "[4]": {"conditions": "dose 0.4 mg/kg i.d., second day, 24 hours after administration, histamine i.v., 0.4 mg/kg"}, "[5]": {"conditions": "iv, 24 h, read-out: Persistency of inhibitory effect against gastric acid secretion (%)"}, "[6]": {"conditions": "iv, read-out: Inhibitory effect against gastric acid secretion (%)"}}, "note": "Where a name gives a salt, the structure may show the parent alone. Read-outs that look alike come from different tables or passages of the source."}
{"smiles": "Cc1cnc(C[S+]([O-])c2nc3ccccc3[n-]2)c(C)c1OCC1COC(C)(C)OC1.[Na+]", "note": "(stereo not drawn) [Example 20, Sodium salt of an optical isomer (short in retention time) of 2-(((4-(2,2-dimethyl-1,3-dioxan-5-yl)methoxy-3,5-dimethylpyridin-2-yl)methyl)sulfinyl)-1H-benzimidazole]", "values": [{"measurement": "inhibition in vivo at 0.1 mg/kg", "setting": "[1]", "value": 6, "unit": "%"}, {"measurement": "inhibition in vivo at 0.2 mg/kg", "setting": "[1]", "value": 46, "unit": "%"}, {"measurement": "inhibition in vivo at 0.1 mg/kg", "setting": "[2]", "value": 8, "unit": "%"}, {"measurement": "inhibition in vivo at 0.2 mg/kg", "setting": "[2]", "value": 65, "unit": "%"}, {"measurement": "Inhibitory effect against gastric acid secretion (%)", "setting": "[3]", "value": 97, "unit": "%"}, {"measurement": "Persistency of inhibitory effect against gastric acid secretion (%)", "setting": "[4]", "value": 77, "unit": "%"}, {"measurement": "Inhibitory effect against gastric acid secretion (%)", "setting": "dose 0.8 mg/kg i.d., first day, 1 h 40 min to 2 h after administration, histamine i.v., 0.8 mg/kg", "value": 100, "unit": "%"}, {"measurement": "Persistency of inhibitory effect against gastric acid secretion (%)", "setting": "dose 0.8 mg/kg i.d., second day, 24 hours after administration, histamine i.v., 0.8 mg/kg", "value": 89, "unit": "%"}]}
{"smiles": "CCc1c(OCC2COC(C)(C)O2)ccnc1C[S+]([O-])c1nc2ccccc2[nH]1", "note": "(stereo not drawn) [Example 51, 2-(((4-((2,2-dimethyl-1,3-dioxolan-4-yl)methoxy)-3-ethylpyridin-2-yl)methyl)sulfinyl)-1H-benzimidazole sodium salt]", "values": [{"measurement": "inhibition in vivo at 1.6 mg/kg", "setting": "[5]", "value": 83, "unit": "%"}, {"measurement": "inhibition in vivo at 1.6 mg/kg", "setting": "[6]", "value": 100, "unit": "%"}]}
{"smiles": "Cc1c(OCC2(C)OCC3(CO2)OCCO3)ccnc1C[S+]([O-])c1nc2ccccc2[nH]1", "note": "(stereo not drawn) [Example 5, 2-(((3-methyl-4-((8-methyl-1,4,7,9-tetraoxaspiro[4.5]dec-8-yl)methoxy)pyridin-2-yl)methyl)sulfinyl)-1H-benzimidazole sodium salt]", "values": [{"measurement": "inhibition in vivo at 0.4 mg/kg", "setting": "[5]", "value": 61, "unit": "%"}, {"measurement": "inhibition in vivo at 0.8 mg/kg", "setting": "[5]", "value": 89, "unit": "%"}, {"measurement": "inhibition in vivo at 0.4 mg/kg", "setting": "[6]", "value": 54, "unit": "%"}, {"measurement": "inhibition in vivo at 0.8 mg/kg", "setting": "[6]", "value": 100, "unit": "%"}]}
{"smiles": "Cc1c(OCC2(C)OCCCO2)ccnc1C[S+]([O-])c1nc2ccccc2[nH]1", "note": "(stereo not drawn) [Example 33, 2-(((3-methyl-4-((2-methyl-1,3-dioxan-2-yl)methoxy)pyridin-2-yl)methyl)sulfinyl)-1H-benzimidazole sodium salt]", "values": [{"measurement": "inhibition in vivo at 1.6 mg/kg", "setting": "[5]", "value": 84, "unit": "%"}, {"measurement": "inhibition in vivo at 1.6 mg/kg", "setting": "[6]", "value": 100, "unit": "%"}]}
{"smiles": "Cc1cnc(C[S+]([O-])c2nc3ccccc3[n-]2)c(C)c1OCC1COC(C)(C)OC1.[Na+]", "note": "(stereo not drawn) [Example 19, Sodium salt of an optical isomer (long in retention time) of 2-(((4-((2,2-dimethyl-1,3-dioxan-5-yl)methoxy)-3,5-dimethylpyridin-2-yl)methyl)sulfinyl)-1H-benzimidazole]", "values": [{"measurement": "inhibition in vivo at 0.8 mg/kg", "setting": "i.d., dose 0.8 mg/kg i.d., first day, 1 h 40 min to 2 h after administration, histamine i.v., read-out: Inhibitory effect against gastric acid secretion (%)", "value": 82, "unit": "%"}, {"measurement": "Inhibitory effect against gastric acid secretion (%)", "setting": "[3]", "value": 13, "unit": "%"}, {"measurement": "Persistency of inhibitory effect against gastric acid secretion (%)", "setting": "[4]", "value": "−4", "unit": "%"}, {"measurement": "Persistency of inhibitory effect against gastric acid secretion (%)", "setting": "dose 0.8 mg/kg i.d., second day, 24 hours after administration, histamine i.v.", "value": 56, "unit": "%"}]}
{"smiles": "Cc1c(OC2COC(C)(C)OC2)ccnc1C[S+]([O-])c1nc2ccccc2[nH]1", "note": "(stereo not drawn) [Example 26, 2-(((4-((2,2-dimethyl-1,3-dioxan-5-yl)oxy)-3-methylpyridin-2-yl)methyl)sulfinyl)-1H-benzimidazole sodium salt]", "values": [{"measurement": "inhibition in vivo at 1.6 mg/kg", "setting": "[5]", "value": 80, "unit": "%"}, {"measurement": "inhibition in vivo at 1.6 mg/kg", "setting": "[6]", "value": 100, "unit": "%"}]}
{"smiles": "Cc1c(OC2COC3(CCC3)OC2)ccnc1C[S+]([O-])c1nc2ccccc2[nH]1", "note": "(stereo not drawn) [Example 9, 2-(((4-(5,9-dioxaspiro[3.5]non-7-yloxy)-3-methylpyridin-2-yl)methyl)sulfinyl)-1H-benzimidazole sodium salt]", "values": [{"measurement": "inhibition in vivo at 0.8 mg/kg", "setting": "[5]", "value": 90, "unit": "%"}, {"measurement": "inhibition in vivo at 0.8 mg/kg", "setting": "[6]", "value": 100, "unit": "%"}]}
